Laboratory results published in patent US9458101B2 (priority 2009, dated 2016).

Key:
CEM cells [1] = experiment: Viability of 3-D CEM cell cultures in Hollow Fiber Bioreactor (HFB), trypan blue; type: cell-based, Human; conditions: for viability of cell cultures: samples analysed by HPLC; for number of viable cells: HFB, decreased from 10^9 cells/mL, 1000 nM, within 72 h; for viability of cells in HFB: after 3 days of treatment
Procedure: CEM cells (American Type Culture Collection, Manassas, Va.) were maintained in tissue culture flasks and cultured as monolayer in 20 mL of RPMI media containing 10% Fetal Bovine Serum (FBS). When the number of cells in the culture flask reached 5-6×10^6 cells/mL the culture was harvested and then inoculated into six Hollow Fiber Bioreactors (HFB, FiberCells System, Frederick, Md.) and were continuously cultured in 37° C. and 5% CO2. HFB consists of a single, hydrophylic and polysulfone fiber with 0.1 μm diameter pores. The media circulating within the HFB cartridge and polysulphone tubing, at flow rate of 14 mL/min, brings oxygen and nutrients to cells and removes CO2 and other waste. Collagen solution was used to create an extra cellular matrix between the cells and the fiber. The polysulphone fiber was coated with protein by flushing with 10 mL of coating solution containing 1 mg collagen per 1 mL Phosphate Buffered Saline (PBS). The pH was maintained in the extra-capillary space throughout the duration of experiments between 6.8 and 7.0. Due to the perfusion the HFB absorbed sufficient oxygen from the reservoir with fresh media to keep cells alive. The perfusion medium was changed weekly when the glucose level reached 2 g/L measured with a glucometer.
Viability was assessed using trypan blue (K. Takahashi, G. Loo, Biochem. Pharm. 67 (2004) 315-324). Briefly, CEM cells were harvested from HFB, seeded in 6 well microplates and exposed to 0.4% (w/v) trypan blue dye solution. Cell number was determined manually with a hemacytometer chamber (Hausser Scientific, Horsham, Pa.).
Approximately 4×10^4 CEM cells/ml were treated on culture plates and placed for the 72 h incubation with (2-16) and (28-38) derivatives. All compounds were used for in vitro experiments and then the derivatives were selected for HFB studies to treat 10^9 CEM cells/mL in the 3-D cultures. The cells were treated 4 weeks after the cells' inoculation in the HFB. After 72 h, the growth was inhibited over 50% for 20 nM and higher concentrations in cells treated with (6), (13), (28) and (35).
CEM cells, American Type Culture Collection (Manassas, Va.), were maintained in tissue culture flasks and cultured as monolayer in 20 ml of RPMI media containing 10% Fetal Bovine Serum (FBS) and divided from 5×10^5 cells/mL to 2.5×10^4 cells/mL two times per week. When the number of the cells in the culture flask reached 5-6×10^6 cells/ml the culture was harvested and then inoculated into six Hollow Fiber Bioreactors (HFB, FiberCells System Inc., Frederick, Md.) and then continuously cultured in 37° C. and 5% CO2. The HFB consists of a single, hydrophylic and polysulfone fiber with 0.1 μm diameter pores. The media circulate within the HFB cartridge and polysulphone tubing, at flow rate of 14 mL/min, bringing oxygen and nutrients to cells and removing CO2 and other waste. Collagen solution was used to create an extracellular matrix between cells and fiber. The polysulfone fiber was coated with protein by flushing with 10 mL of coating solution containing 1 mg collagen per 1 mL Phosphate Buffered Saline (PBS). In this manner, CEM cells growing originally in suspension build up a 3-D solid tumor. During 4 weeks of culturing, the media were replaced each week.
The number of cells was determined using Trypan blue (Sigma-Aldrich, Oakville, ON) exclusion method (K. Takahashi, G. Loo, Biochem. Pharmacol. 67 (2004) 315-324). Briefly, CEM cells were harvested from HFB, seeded in 6 well microplates and exposed to 0.4% (w/v) trypan blue dye solution. Cell number was determined manually with a hemacytometer chamber (Hausser Scientific, Horsham, Pa.).

M010B (Human glioma) = experiment: Cytotoxicity testing (MTS) on M010B; type: cell-based
Procedure: (§1) Cell lines used were A549 (Human lung carcinoma), HeLa (Human cervical carcinoma), MCF-7 (Human mammary gland adenocarcinoma), CEM (Human T-lymphoblastoid from ALL (Acute lymphoblastic leukemia)), M010B (Human glioma), M006X (Human glioma) and Jurkat (Human T-cell leukemia).
(§2) A series of dilutions were prepared and a wavelength scan of the diluted solution was used to determine the wavelength of maximum absorbance for each compound. Five standardized drug concentrations were scanned at this pre-determined wavelength to obtain an estimate of the compound's extinction coefficient.
(§3) A primary MTS assay was used to test the optimal number of cells for cytotoxicity assays. Cells were trypsinized, counted and introduced into seven lanes of a 96-well plate at different cell numbers (eight replicates per lane). Optimal cell numbers were determined after 72 and 96 hours of growth and were used in subsequent cytotoxicity assays. […] Cell viability was determined using the Cell Titer 96 AQueous One Solution Cell Proliferation Assay (Promega, U.S.A.).
(§4) Fits were performed using a dose-response model ideal for data showing an initial response plateau, a transition region, and a final response plateau.
(§5) [formula] […] Itop is the response obtained at very low/no drug concentration. The data and all parameters were normalized to Itop−Ibot, a measure of the maximum effect of the drug.

[2] = test system: A549, HeLa, MCF-7 and CEM cell lines; experiment: Cytotoxicity, mean over A549, HeLa, MCF-7 and CEM cell lines; conditions: for IC50 [log10 M] (mean logIC50): mean over A549, HeLa, MCF-7 and CEM cell lines
From the text: as §1, §3, §5
Cytotoxicity screening was performed on a number of cell lines based on the cancer of origin and differing morphologies.

[3] = test system: MCF-7 (Human mammary gland adenocarcinoma); experiment: Cytotoxicity testing (MTS) on MCF-7; type: cell-based
Procedure: as §1, §2, §3, §4, §5

[4] = test system: HeLa (Human cervical carcinoma); experiment: Cytotoxicity testing (MTS) on HeLa; type: cell-based
Procedure: as §1, §2, §3, §4, §5

M006X (Human glioma) = experiment: Cytotoxicity testing (MTS) on M006X; type: cell-based
Procedure: as §1, §2, §3, §4, §5

[5] = test system: CEM (Human T-lymphoblastoid from ALL); experiment: Cytotoxicity testing (MTS) on CEM; type: cell-based
Procedure: as §1, §2, §3, §4, §5

[6] = test system: A549 (Human lung carcinoma); experiment: Cytotoxicity testing (MTS) on A549; type: cell-based
Procedure: as §1, §2, §3, §4, §5

CEM cells [7] = experiment: HPLC-UV profile of treated CEM cells; type: cell-based, Human; conditions: for expression of MHC (class I) receptor, HPLC peak intensity: eluted at 53 min; for apoptotic protein signal, HPLC peak intensity: eluted at 57 min
Procedure: Digested cell samples were fractionated with a Gold HPLC chromatograph system equipped with a Gold 166 Ultra Violet (UV) Detector and 32-Karat software (Beckman-Coulter, Mississauga, ON, Canada). For reversed-phase HPLC, a Vydac 218 TP54 Protein & Peptide C18 analytical column, 300 Å pore size, 0.46 cm×25 cm (Separation Group, Hesperia, Calif., U.S.A.) was used. The chromatograph was equipped with a Rheodyne injector (5 μL). UV detection was performed at 245 nm. Eluent A consisted of 5% acetonitrile (ACN) water solution and eluent B of 0.01% trifluoroacetic acid in 95% ACN water solution. A linear gradient from 5 to 70% ACN was applied over 60 min.
It was assumed that signals eluted at 30-35 min were unreacted derivatives with variable intensity of 0.1 V for (28) and (35) as well as 0.35 V for (13) and 0.9 V for (6). […] An additional signal eluted at 57 min occurred in samples treated with (35) and (28) (FIGS. 10D and 10E). The signals at 57 min differ at about 5 min in elution present one from cascade of apoptotic protein in treated cells. The peak intensity of 0.3 V (28) and 0.2 V (35) corresponded to viability of cells 38% (28) and 35% (35) and unreacted derivatives 0.1 (28), 0.1 (35), respectively. The undefined additional peaks with very low intensities, less then 0.05 V, are the metabolites of derivatives or unreacted compounds.

CEM cells [8] = experiment: 19F MRI signal intensity of treated 3-D CEM cultures in HFB (cell number with fluorine uptake); type: cell-based, Human; conditions: for mean CEM cell density in the region with lower densities / mean number of cells in the region with higher cell densities: MRI; for mean cell concentration corresponding to mean 19F SI: cells with fluorine derivative uptake
Procedure: All MRI experiments were performed using a 9.4 Tesla with 21 cm bore magnet (Magnex, U.K.) and TMX console (NRC-IBD, Canada). ^19F MR images were acquired using double (^19F and ^1H) tuned transmit/receive radio frequency (RF) volume coil operating at 376 MHz and 400 MHz corresponding to ^19F and ^1H Larmour frequency at 9.4 Tesla, respectively. ^1H MR images were collected in the same imaging session that ^19F MRI. Proton MR provided anatomical images of the culture. The MRI images monitored the localization of cells around the fiber in HFB as well as the volume of the cells. Moreover, ^19F MRI selectively visualizes only intracellular fluorine uptake with no background, therefore allows cell count. The cells before and after treatment with (6), (13), (28) and (35) were imaged with ^1H MRI, this allowed changes to be observed in the 3-D cell aggregation. The cells treated with 20 nM (28) and (35) were also imaged with ^19F MRI to measure fluorine content using ^19F NMR signal intensity (SI) in each HFB treated with (28) and (35). […] To obtain the calibration curves (for each derivative separately) the phantoms consisting of HFB tubes filled with 1 nM, 10 nM, 20 nM, 100 nM, 500 nM and 1000 nM of (28) or (35) and 10^3 cells, 10^4 cells, 10^5 cells, 10^6 cells, 10^7 cells, 10^8 cells and 10^9 cells were used. The linear regression was used to find the SI dependence on cell numbers. The cell numbers estimated from ^19F MR imaging were compared to the cell viability obtained from trypan blue assays. […] One 1 mm slice was acquired with a matrix size of 256×256 and a field of view of 3×3 cm for both ^19F and ^1H.

CEM cells [9] = type: cell-based, Human

| SMILES | viability of cell cultures (CEM cells [1]) | Fraction of cells that survive at the highest drug concentrations (Ibot) (M010B (Human glioma)) | logIC50 (M010B (Human glioma)) [log10 M] | IC50 [log10 M] (mean logIC50) [2] | Fraction of cells that survive at the highest drug concentrations (Ibot) [3] | logIC50 [3] [log10 M] | Fraction of cells that survive at the highest drug concentrations (Ibot) [4] | logIC50 [4] [log10 M] | Fraction of cells that survive at the highest drug concentrations (Ibot) (M006X (Human glioma)) | logIC50 (M006X (Human glioma)) [log10 M] | Fraction of cells that survive at the highest drug concentrations (Ibot) [5] | logIC50 [5] [log10 M] | Fraction of cells that survive at the highest drug concentrations (Ibot) [6] | logIC50 [6] [log10 M] | expression of MHC (class I) receptor, HPLC peak intensity (CEM cells [7]) [V] | number of viable cells (CEM cells [1]) | viability of cells in HFB (CEM cells [1]) [%] | apoptotic protein signal, HPLC peak intensity (CEM cells [7]) [V] | mean CEM cell density in the region with lower densities (CEM cells [8]) | mean number of cells in the region with higher cell densities (CEM cells [8]) | other results |
| --- | --- | --- | --- | --- | --- | --- | --- | --- | --- | --- | --- | --- | --- | --- | --- | --- | --- | --- | --- | --- | --- |
| CCOc1c(OC)c(OC)cc2c1-c1ccc(OC)c(=O)cc1[C@@H](NC(C)=O)CC2 [Compound 6, N-[(7S)-1-(ethoxy)-2,3,10-trimethoxy-9-oxo-5,6,7,9-tetrahydrobenzo[α]heptalen-7-yl]acetamide] | 50%±4 | 0.108 ± 0.013 | −7.94 ± 0.04 | −7.95 ± 0.09 | 0.605 ± 0.015 | −7.42 ± 0.13 | 0.089 ± 0.026 | −7.89 ± 0.06 | 0.039 ± 0.011 | −8.41 ± 0.08 | −0.062 ± 0.026 | −8.64 ± 0.08 | 0.249 ± 0.030 | −7.83 ± 0.10 | – | – | – | – | – | – | average IC50 values compared with colchicine ([2]; average values of Table 3): stronger than colchicine |
| COc1cc2c(c(-c3cccnc3)c1OC)-c1ccc(OC)c(=O)cc1[C@@H](NC(C)=O)CC2 [Compound 13, N-[(7S)-2,3,10-trimethoxy-9-oxo-1-((pyridin(3))yl)-5,6,7,9-tetrahydrobenzo[α]heptalen-7-yl]acetamide] | 45%±2 | 0.305 ± 0.053 | −4.90 ± 0.09 | −5.13 ± 0.17 | 0.364 ± 0.038 | −5.19 ± 0.09 | 0.059 ± 0.059 | −5.33 ± 0.14 | 0.055 ± 0.046 | −5.67 ± 0.12 | −0.026 ± 0.039 | −5.50 ± 0.10 | 0.218 ± 2.644 | −4.51 ± 0.32 | 0.05 | – | – | – | – | – | – |
| CCOc1c(OC)c(OC)cc2c1-c1ccc(OC)c(=O)cc1[C@@H](NC(=O)CNC(=O)C(F)(F)F)CC2 [Compound 28] | 38%±4 | – | – | – | – | – | – | – | – | – | – | – | – | – | – | 3.45×10^8 cells/mL | 35 | 0.3 | 2.4×10^8 cells/mL | 3.5×10^8 cells/mL | mean cell concentration corresponding to mean 19F SI (CEM cells [8]): 6.03×10^8 cells/mL |
| COc1cc2c(c(OCc3cccnc3)c1OC)-c1ccc(OC)c(=O)cc1C(NC(=O)CNC(=O)C(F)(F)F)CC2 (centres unmarked) [Compound 35] | 35%±5 | – | – | – | – | – | – | – | – | – | – | – | – | – | 0.7 | 2.9×10^8 cells/mL | 30 | 0.2 | 1.4×10^8 cells/mL | 4.8×10^8 cells/mL | mean cell concentration corresponding to mean 19F SI (CEM cells [8]): 6.9×10^8 cells/mL |
| COc1c(O)cc2c(c1OC)-c1ccc(SC)c(=O)cc1[C@@H](N(C(C)=O)C(=O)CNC(=O)C(F)(F)F)CC2 [Compound 47, N-[(7S)-3-hydroxy-1,2-dimethoxy-10-methylsulfanyl-9-oxo-5,6,7,9-tetrahydrobenzo[α]heptalen-7-yl]-N-[(trifluoroacetyl)glycyl]acetamide] | – | – | – | – | – | – | – | – | – | – | – | – | – | – | – | – | – | – | – | – | fold lower IC50 than IC50 of (39) (CEM cells [9]): about 8 fold |
| C=CCOc1cc2c(c(OC)c1OC)-c1ccc(SC)c(=O)cc1[C@@H](N(C(C)=O)C(=O)CNC(=O)C(F)(F)F)CC2 [Compound 48, N-[(7S)-1,2-dimethoxy-10-methylsulfanyl-9-oxo-3-(prop-2-enoxy)-5,6,7,9-tetrahydrobenzo[α]heptalen-7-yl]-N-[(trifluoroacetyl)glycyl]acetamide] | – | – | – | – | – | – | – | – | – | – | – | – | – | – | – | – | – | – | – | – | fold lower IC50 than IC50 of (39) (CEM cells [9]): about 8 fold |
